Earlier results, collected in patent US20120225135A1 (priority 2010, published 2012).

Test system: biofilm
Details: cited from earlier work

Compound	effect on biofilm	effect on biofilm detachment	further results
O=CCCCC=O [Glutaraldehyde]	no effect on biofilm		
O=[O+][O-] [Ozone]	kill cells in the biofilm without any detachment of the biofilm		
OO [hydrogen peroxide]		very poor to no effect	
CC(=O)OO [peracetic acids]		very poor to no effect	
chloramines			detachment of biofilms: very effective
